≈ marks a conversion by molar mass, not a printed value.

As usually defined, the NOAEL is the highest dose or exposure tested at which no adverse effect was seen.

Data set [1] has as its system Apis mellifera. The conditions noted are these: acute, mortality.
The subject of data set [2] is Mus musculus. Particulars: acute; oral; mortality.
Data set [3] deals with Oncorhynchus mykiss. The conditions noted are these: mortality.
Data set [4] relates to Beta vulgaris. Particulars: not reported; seedling emergence.
For data set [5], the system named is Tagia sp.
Data set [6] has as its system Daphnia magna. The conditions noted are these: chronic/long-term; duration: 21 days; reproduction.
For data set [7], the system named is Typhlodromus pyri. The conditions noted are these: acute; duration: 7 days; mortality.
Data set [8] has as its system Bird.
Data set [9] deals with Bibionidae. Particulars: chronic/long-term; duration: 28 days; seedling emergence.
Data set [10] relates to Oryctolagus sp. Particulars: developmental; development.

Turning to `CC1(C)CCC(Cc2ccc(Cl)cc2)C1(O)Cn1cncn1` (stereo not given) [Metconazole], the LD50 in [1] (duration: 72 hours, oral, unspecified) was greater than 85 µg/piece; in [1] (duration: 96 hours, dermal), greater than 100 µg/piece; in data set [2], 410 mg/kg; in data set [8] (acute, oral, unspecified, mortality), 787 mg/kg. Moreover, the LC50 in data set [3] (acute, duration: 72 hours) was 2.1 µg/mL (≈ 6.57 µM); in data set [5] (acute, duration: 14 days, mortality), greater than 1000 mg/kg; in [8] (short-term, oral, feed, mortality), 168 mg/kg-day. Moreover, the NOEC in data set [3] (chronic/long-term, duration: 95 days) came out at 0.00291 mg/L; in data set [4], 96 g/ha; in data set [5] (chronic/long-term, reproduction) it was 1.8 mg/kg; in data set [6], 0.16 mg/L; in data set [8] (reproductive, duration: 22 weeks) it was 6.19 mg/kg-day; in data set [9], 2.12 mg/L. For the same molecule, in data set [7], the LEL stood at 180 g/ha. In addition, the NOAEL in data set [10] was found to be 4 mg/kg-day.

Values taken from EPA's ToxValDB 9.5 (doi:10.2903/j.efsa.2006.64r).
